According to US20240382475A1, “Quinazoline Derivative, Or Preparation Method Therefor And Use Thereof” (Zhejiang Hisun Pharmaceutical Co., Ltd., priority 2021, published 2024):

Tests used:
[1] = system: human lung cancer NCI-H2122 subcutaneous xenotransplanted tumor; test: Pharmacodynamic evaluation in nude mouse subcutaneous xenotransplanted model of human lung cancer NCI-H2122; format: in vivo, Balb/c nude mouse; conditions: 30 mg/kg each agent
Experimental: The anti-tumor effect and safety of compound 11 of the present invention were evaluated in a Balb/c nude mouse animal model of subcutaneous xenotransplanted NCI-H2122.
BALB/c; nude mice, female, 6-7 weeks old (the age of mice when tumor cells were inoculated), purchased from Jiangsu Jicui Yaokang Biotechnology Co., Ltd.
The solvent control group was given DMSO:castor oil:5% glucose injection=20:10:70 (v/v/v).
(§1) AMG-510: an appropriate amount of AMG-510 was weighed, and an appropriate amount of DMSO:castor oil:5% glucose injection=20:10:70 (v/v/v) was added. After the above mixture was fully dissolved, an appropriate amount of 1 M hydrochloric acid was added, vortexed and mixed to prepare a solution with a concentration of 3 mg/mL.
as §1, with “Compound 11:” for “AMG-510:”, “compound 11” for “AMG-510”
H2122 cells were cultured in 1640 culture medium containing 10% fetal bovine serum and 1% penicillin-streptomycin-amphotericin B solution. H2122 cells in the exponential growth phase were collected and resuspended in matrigel solution (matrigel:PBS=1:1 (V/V)) to a suitable concentration for subcutaneous tumor inoculation in nude mice.
Female Balb/c nude mice were subcutaneously inoculated with about 3.0×10^6H2122 cells on the right sides of their backs. When the average volume of the tumors reaches about 150-200 mm^3, the mice were randomly divided according to the tumor sizes with 6 mice in each group.
• Group 1 (G1), solvent control group; • Group 2 (G2), AMG-510 was given by intragastric administration at a dose of 30 mg/kg; • Group 3 (G3), Example 11 was given by intragastric administration at a dose of 30 mg/kg; • Group 4 (G4), AMG-510 and Example 11 were administered in combination, and the dosages were respectively: AMG-510, 30 mg/kg (QD); Example 11, 30 mg/kg (QD).
After tumor inoculation, routine monitoring included the effects of tumor growth and treatment on the normal behaviors of the animals, specifically the mobility, feeding and drinking, weight gain or loss, eyes, coat and other abnormalities of the experimental animals.
Calculation formulae for a relative tumor volume (RTV), a relative tumor proliferation rate (T/C) and a tumor inhibition percentage (IR) were as follows: • (1) TV (tumor volume)=½×a×b^2, wherein a and b represent the length and width of the tumor respectively; • (2) RTV (relative tumor volume)=Vt/Vo, wherein Vo is the tumor volume measured at the time of administration when grouping (i.e. do), and Vt is the tumor volume at each measurement; • (3) relative tumor proliferation rate T/C (%)=TRTV/CRTV×100%, wherein TRTV is the RTV of the treatment group and CRTV is the RTV of the control group; • (4) Tumor growth inhibition rate TGI(%)=(1−T/C)×100%; wherein, T and C are the relative tumor volumes of the treatment group and the control group at a specific time point. • (5) IR (%)=(1−TWt/TWc)×100%, wherein, TWt is the tumor weight of the treatment group and TWc is the tumor weight of the control group. The anti-tumor evaluation criteria are (cytotoxic drugs): T/C(%)>40% is invalid; T/C(%)≤40%, and after statistical processing, P<0.05 is effective.

OCI-AML5 cells = test: Inhibition of OCI-AML5 cell proliferation (CellTiter-Glo); format: cell-based; conditions: Homo sapiens, OCI-AML-5; OCI-AML5 cells (SOS1 N233Y mutation), 120 hours
Experimental: The following method was used to determine the influence of the compounds of the present invention on OCI-AML5 cells proliferation. OCI-AML5 cells (containing SOS1 N233Y mutation) were purchased from Nanjing Kebai Biotechnology Co., Ltd. and cultured in MEMα medium containing 10% fetal bovine serum, 100 U penicillin, and 100 μg/mL streptomycin. The activities of the cells were determined by CellTiter-Glo® Luminescent Cell Viability Assay Kit (Promega, Art. No. G7573).
The experimental method was operated according to the steps in the kit instruction, which were briefly described as follows: the test compounds were first dissolved in DMSO to prepare storage solutions of 10 mM, and then diluted with culture mediums to prepare test samples. The final concentrations of the compounds were 10000 nM to 0.15 nM. Cells in logarithmic phase were inoculated in a 96-well cell culture plate with 1,000 cells per well, after cultured overnight in 5% CO2 incubator at 37° C., the test compounds were added to the incubator to continue the culture for 120 hours. After the culture was completed, 50 μL of CellTiter-Glo detection solution was added to each well, shaken for 5 minutes and then stood for 10 minutes. Then, a Luminescence mode was used to read the luminescence values of each well of the samples on a microplate reader.

KRAS-G12C/SOS1 = molecular target: T1, KRAS-G12C/SOS1 (Homo sapiens, UniProt Q07889); test: Blocking the binding of KRAS G12C protein to SOS1 (Cisbio KRAS-G12C/SOS1 binding assay kit, TR-FRET); conditions: Tag1-SOS1 and Tag2-KRAS-G12C, TR-FRET 665/620; read-out: IC50 (nM) Inhibition of KRAS-G12C/SOS1 binding
T1 construct: purchased Cisbio 63ADK000CB16PEG
T1 sequence (Q07889 1-1333): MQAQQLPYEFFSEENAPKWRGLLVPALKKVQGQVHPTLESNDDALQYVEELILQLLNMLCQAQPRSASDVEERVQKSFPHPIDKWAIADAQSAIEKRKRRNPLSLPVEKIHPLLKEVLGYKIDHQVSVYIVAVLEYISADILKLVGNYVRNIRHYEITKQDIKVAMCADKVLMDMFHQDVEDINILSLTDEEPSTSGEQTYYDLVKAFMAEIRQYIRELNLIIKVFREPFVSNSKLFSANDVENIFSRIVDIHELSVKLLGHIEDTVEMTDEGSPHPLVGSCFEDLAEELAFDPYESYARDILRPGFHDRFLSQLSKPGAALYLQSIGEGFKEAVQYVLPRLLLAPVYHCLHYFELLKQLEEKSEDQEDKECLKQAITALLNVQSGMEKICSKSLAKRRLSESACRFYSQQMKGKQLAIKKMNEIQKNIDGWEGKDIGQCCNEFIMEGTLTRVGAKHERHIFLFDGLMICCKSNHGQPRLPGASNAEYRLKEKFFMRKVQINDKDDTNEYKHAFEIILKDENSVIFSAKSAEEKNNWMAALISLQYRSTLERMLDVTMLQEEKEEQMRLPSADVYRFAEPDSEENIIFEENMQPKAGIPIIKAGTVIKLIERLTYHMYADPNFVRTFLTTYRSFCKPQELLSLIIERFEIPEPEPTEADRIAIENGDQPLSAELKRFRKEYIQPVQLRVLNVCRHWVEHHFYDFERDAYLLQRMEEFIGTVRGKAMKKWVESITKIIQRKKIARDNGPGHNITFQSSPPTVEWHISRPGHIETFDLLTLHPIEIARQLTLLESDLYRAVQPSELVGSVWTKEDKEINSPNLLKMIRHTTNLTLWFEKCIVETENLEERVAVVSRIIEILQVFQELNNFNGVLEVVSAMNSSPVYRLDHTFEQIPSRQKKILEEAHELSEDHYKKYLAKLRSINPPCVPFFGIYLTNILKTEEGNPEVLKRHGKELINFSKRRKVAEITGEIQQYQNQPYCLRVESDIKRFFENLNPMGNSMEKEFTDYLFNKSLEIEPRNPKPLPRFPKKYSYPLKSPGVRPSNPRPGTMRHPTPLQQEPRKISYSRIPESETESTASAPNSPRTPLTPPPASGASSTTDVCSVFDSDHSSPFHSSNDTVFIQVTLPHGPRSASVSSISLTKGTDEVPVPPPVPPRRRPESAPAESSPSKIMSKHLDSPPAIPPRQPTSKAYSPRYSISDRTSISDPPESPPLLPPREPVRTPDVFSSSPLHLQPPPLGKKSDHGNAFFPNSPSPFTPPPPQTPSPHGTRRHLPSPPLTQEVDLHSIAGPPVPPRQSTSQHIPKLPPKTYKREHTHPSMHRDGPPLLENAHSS
Excerpt: The following method was used to determine the abilities of compounds of the invention to block the interaction of SOS1 with the KRAS G12C protein in vitro. KRAS-G12C/SOS1 BINDING ASSAY KITS (Art. No. 63ADK000CB16PEG) from Cisbio was used in this method. Please refer to the kit instruction for detailed experimental operations.
The experimental process can be briefly described as follows: diluent buffer (Art. No. 62DLBDDF) was used to prepare a working solution with a concentration of 5× for Tag1-SOS1 and Tag2-KRAS-G12C protein. The test compounds were dissolved in DMSO to prepare storage solutions of 10 mM, and then the solutions were diluted with dilution buffer for later use. First, 2 μL of the test compound (the final concentrations of the reaction system were 10000 nM-0.1 nM) was added to the well, then 4 μL of Tag1-SOS1 5× working solution and 4 μL of Tag2-KRAS-G12C 5× working solution were added, and the above mixture was centrifuged, mixed, and stood for 15 minutes; then 10 μL of premixed anti-Tag1-Tb^3+ and anti-Tag2-XL665 were added, and the mixture was incubated at room temperature for 2 hours; finally, a microplate reader was used in […] mode to measure the fluorescence intensity of each well emitting wavelengths of 620 nm and […] under the excitation wavelength of 304 nm, and the fluorescence intensity ratio 665/620 in each well was calculated. Compared with the fluorescence intensity ratio of a control group (0.1% DMSO), the percentage inhibition rates of the test compounds at each concentration were calculated, and the IC50 values of the compounds were obtained by performing nonlinear regression analysis with logarithmic values of the compound concentration-inhibition rate by GraphPad Prism 5 software, which was shown in Table 1.

For C=CC(=O)N1CCN(c2nc(=O)n(-c3c(C)ccnc3C(C)C)c3nc(-c4c(O)cccc4F)c(F)cc23)[C@@H](C)C1 [AMG-510, reference compound], the “Relative tumor volume (x ± S)” value ([1]; 16 days after administration) was 2.90 ± 0.26, the TGI % ([1]; 16 days after administration) was 43.0% and the “Tumor volume (x ± S)” value ([1]; Day 0 after administration, intragastric) was 199 ± 21 mm^3. For the same compound, the “Tumor volume (x ± S)” value ([1]; Day 3 after administration, intragastric) was 263 ± 17 mm^3, the “Tumor volume (x ± S)” value ([1]; Day 7 after administration, intragastric) was 343 ± 29 mm^3 and the “Tumor volume (x ± S)” value ([1]; Day 10 after administration, intragastric) was 406 ± 38 mm^3. The “Tumor volume (x ± S)” value ([1]; Day 14 after administration, intragastric) was 538 ± 47 mm^3, the “Tumor volume (x ± S)” value ([1]; Day 16 after administration, intragastric) was 563 ± 58 mm^3 and the “Tumor volume (x ± S)” value ([1]; Table 11, 16 days after administration, in mm³) was 563 ± 58. For the same compound, the “Inhibition rate of tumor weight (%)” value ([1]; end of the experiment) was 44.3% and the “Tumor weight (g) (x ± S)” value ([1]; end of the experiment) was 0.4203 ± 0.0447 g.

In the case of COc1cc2nc(C)nc(N[C@H](C)c3cccc(C#N)c3C)c2cc1N1CCN2C(=O)CCC2C1 (stereo partly drawn) [Compound 3, 3-((1R)-1-((7-methoxy-2-methyl-6-(6-oxohexahydropyrrolo[1,2-a]pyrazin-2(1H)-yl)quinazolin-4-yl)amino)ethyl)-2-methylbenzonitrile], the IC50 (OCI-AML5 cells) is reported as 42.9 nM.

Work on COc1cc2nc(C)nc(N[C@H](C)c3cccc(C#N)c3C)c2cc1N1CCC(N2CCOCC2)CC1 [Compound 6, (R)-3-(1-((7-methoxy-2-methyl-6-(4-morpholinopiperidin-1-yl)quinazolin-4-yl)amino)ethyl)-2-methylbenzonitrile] yielded an IC50 (KRAS-G12C/SOS1) of 1.1 nM and an IC50 (OCI-AML5 cells) of 5.5 nM.

With COc1cc2nc(C)nc(N[C@H](C)c3cccc(C#N)c3C)c2cc1N1CC2COCC2C1 (stereo partly drawn) [Compound 9, 3-((1R)-1-((7-methoxy-2-methyl-6-(tetrahydro-1H-furo[3,4-c]pyrrol-5(3H)-yl)quinazolin-4-yl)amino)ethyl)-2-methylbenzonitrile] the IC50 (KRAS-G12C/SOS1) was 53.7 nM and the IC50 (OCI-AML5 cells) was 25 nM.

In the case of COc1cc2nc(C)nc(N[C@H](C)c3cccc(C#N)c3C)c2cc1N1CCN(C)CC1 [Compound 10, (R)-3-(1-((7-methoxy-2-methyl-6-(4-methylpiperazin-1-yl)quinazolin-4-yl)amino)ethyl)-2-methylbenzonitrile], the IC50 (KRAS-G12C/SOS1) is reported as 36.7 nM and the IC50 (OCI-AML5 cells) is reported as 16.8 nM.

With COc1cc2nc(C)nc(N[C@H](C)c3cccc(C#N)c3C)c2cc1N1CCC2(CC1)CN(S(C)(=O)=O)C2 [Compound 16, (R)-3-(1-((7-methoxy-2-methyl-6-(2-(methylsulfonyl)-2,7-diazaspiro[3.5]nonan-7-yl)quinazolin-4-yl)amino)ethyl)-2-methylbenzonitrile] the IC50 (KRAS-G12C/SOS1) was 54.3 nM.

COc1cc2nc(C)nc(N[C@H](C)c3cccc(C#N)c3C)c2cc1N1CCC(N2CCCC2=O)CC1 [Compound 21, (R)-3-(1-((7-methoxy-2-methyl-6-(4-(2-oxopyrrolidin-1-yl)piperidin-1-yl)quinazolin-4-yl)amino)ethyl)-2-methylbenzonitrile] gave an IC50 (KRAS-G12C/SOS1) of 63.2 nM.

Work on COc1cc2nc(C)nc(N[C@H](C)c3cccc(C#N)c3C)c2cc1N1CCC(N2CCN(S(C)(=O)=O)CC2)CC1 [Compound 23, (R)-3-(1-((7-methoxy-2-methyl-6-(4-(4-(methylsulfonyl)piperazin-1-yl)piperidin-1-yl)quinazolin-4-yl)amino)ethyl)-2-methylbenzonitrile] yielded an IC50 (OCI-AML5 cells) of 41.1 nM.
